Three molecules from patent US20260001928A1 (CORTERIA PHARMACEUTICALS, priority 2022, published 2026) can be followed below.

As a reminder, the fraction remaining is the share of the starting amount still present when the sample was taken. As a reminder, the pEC50 is −log10 of the EC50, conventionally taken in molar units. A word on the AUC(0-t): it is the area under the concentration-time curve up to a stated or last time point. Broadly, the Cmax is the peak of the concentration-time curve. In general, Tmax refers to the time from dosing to the highest level. A word on the half-life: it is the time in which the quantity being followed falls by half.

Molecules are shown by their SMILES. pEC50: −log10 of the molar value. *1 amine or outer side, *2 acyl side, *3 side chain or, on linkers, in order; H or OH if unused. Where a SMILES comes first, the peptide text is derived from it. Side-chain parts run from the residue outwards. [ ]: non-standard residue; d: D form. The star is where a group is joined. C18 diacid = O=C(O)CCCCCCCCCCCCCCCCC(=O)*; γGlu = O=C(O)[C@H](CCC(=O)[*:2])N[*:1]; X1 = O=C(CC1(N[*:1])CCOCC1)[*:2]; Api = NC1(C(=O)O)CCNCC1; Aib = CC(C)(N)C(=O)O Some results are limits rather than exact numbers.

Series [1] in a line: In vitro subcutaneous tissue supernatant (SCts) stability and metabolite identification, rat. The conditions noted are these: male, Sprague Dawley; rat subcutaneous tissue supernatant (SCts), 37° C, 2 h. The class given is in vitro ADME. Also on record: remaining at 2 h: dose or concentration left out as unconfirmed.
For the next series, the target named is T1, CFR1R receptor (Homo sapiens, UniProt P34998).
T1 construct: host or cells: CHO-K1 (clone 2)
T1 sequence (P34998 24-415): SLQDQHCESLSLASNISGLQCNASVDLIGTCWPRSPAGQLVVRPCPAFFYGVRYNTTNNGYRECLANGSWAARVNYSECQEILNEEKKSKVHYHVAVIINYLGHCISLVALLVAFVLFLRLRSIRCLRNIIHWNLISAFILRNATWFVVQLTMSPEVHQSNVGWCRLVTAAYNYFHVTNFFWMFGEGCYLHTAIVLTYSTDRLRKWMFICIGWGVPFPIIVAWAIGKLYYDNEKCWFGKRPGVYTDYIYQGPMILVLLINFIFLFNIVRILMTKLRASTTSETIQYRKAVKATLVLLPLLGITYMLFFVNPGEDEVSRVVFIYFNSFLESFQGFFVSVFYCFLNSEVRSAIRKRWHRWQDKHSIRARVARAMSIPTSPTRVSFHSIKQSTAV
In words: Activity at anti-target CFR1R receptor, cAMP assay in CRF1R-overexpression CHO-K1 cells. The series is classed as cell-based. The conditions noted are these: 100% = Sauvagine at 100 nM; for pEC50: cAMP. Put shortly:
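Clone 2; cryopreserved stocks (10% DMSO); 4000 cells/well final; 100% activation = Sauvagine 100 nM; otherwise as TeloHAEC protocol.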
A general note: Changes in cAMP serve as a functional read-out for many G protein-coupled receptors.

Series [2] in a line: Pharmacokinetics in male Sprague Dawley rats after subcutaneous administration. The conditions noted are these: plasma, rat, SC, 0.05 mg/kg. The series is classed as in vivo. Here is the method:
The pharmacokinetics of UCN-2 derivatives was studied in male Sprague Dawley rats after subcutaneous administration (SC) at 0.05, 0.1, 0.3 or 1 mg/kg. Peptides were formulated as a solution in 10 mM phosphate pH 7.4 buffer+glycerol 85% (2.3% v/v)). […] The supernatant (200 μL) was analyzed by LC-MSMS. Pharmacokinetic parameters were calculated using established non-compartmental methods. The area under the plasma concentration curve versus time (AUC) was determined using Watson LIMS (version 7.6), with linear trapezoidal interpolation in the ascending slope and logarithmic trapezoidal interpolation in the descending slope. The portion of the AUC from the last measurable concentration to infinity was estimated from the equation, Ct/kel, where Ct represents the last measurable concentration and kel is the elimination rate constant. The latter was determined from the concentration curve versus time by linear regression at the terminal phase of the semi-logarithmic plot.

The next series addresses T2, human CRF2a receptor (Homo sapiens, UniProt Q13324).
T2 construct: expressed in transfected cells; host or cells: TeloHEAC cells
T2 sequence (Q13324 1-411): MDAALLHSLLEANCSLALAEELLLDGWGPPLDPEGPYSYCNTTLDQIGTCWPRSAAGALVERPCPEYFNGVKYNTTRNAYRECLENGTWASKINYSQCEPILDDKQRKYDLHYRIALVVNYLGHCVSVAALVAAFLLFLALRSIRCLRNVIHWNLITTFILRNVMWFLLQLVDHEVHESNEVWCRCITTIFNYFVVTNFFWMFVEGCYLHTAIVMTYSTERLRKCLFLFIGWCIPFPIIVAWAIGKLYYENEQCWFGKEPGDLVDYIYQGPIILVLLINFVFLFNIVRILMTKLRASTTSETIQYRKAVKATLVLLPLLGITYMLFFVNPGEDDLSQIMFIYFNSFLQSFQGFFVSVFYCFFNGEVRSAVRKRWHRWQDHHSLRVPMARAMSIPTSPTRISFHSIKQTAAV
In words: Activity at human CRF2a receptor, cAMP functional assay in TeloHEAC cells. The series is classed as cell-based. The conditions noted are these: TeloHEAC cells stably expressing human CRF2a receptor, relative to urocortin 2 (100 nM = 100%). Put shortly:
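TeloHEAC cells stably expressing human CRF2a (10000 cells/well) were treated with 16-point 1:2 compound dilutions in HBSS/20 mM HEPES with IBMX for 30 min at 37° C. cAMP was read by HTRF (665/620 nm ratio). EC50 was the concentration giving 50% activation, with 100 nM urocortin 2 set as 100%.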

Series [3] can be described thus: Chemical stability in buffer (pH 7.4 / pH 4.5), % purity loss. The series is classed as physicochemical. The conditions noted are these: 40° C. vs 5° C., 14 or 28 days; for Buffer stability pH 7.4 % purity loss: 100 mM phosphate buffer pH 7.4. Put shortly: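 LC-UV gave % loss after 14 or 28 days of storage at 5 °C or 40 °C. Samples were diluted supernatants from compound incubated 1 h at room temperature at 10 mg/mL target, in 100 mM acetate pH 4.5 or 100 mM phosphate pH 7.4.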

As for `CC[C@H](C)[C@H](NC(C)=O)C(=O)N[C@H](C(=O)N[C@@H](CC(C)C)C(=O)N[C@@H](CO)C(=O)N[C@@H](CC(C)C)C(=O)N[C@@H](CC(=O)O)C(=O)N[C@@H](C(=O)N1CCC[C@H]1C(=O)N[C@H](C(=O)N[C@@H](CCCCN)C(=O)N[C@@H](CC(C)C)C(=O)N[C@@H](CCCCNC(=O)CC[C@H](NC(=O)CCCCCCCCCCCCCCCCC(=O)O)C(=O)O)C(=O)N[C@@H](CCCCN)C(=O)N[C@H](C(=O)N[C@@H](CC(C)C)C(=O)N[C@@H](CC(C)C)C(=O)N[C@@H](CCC(=O)O)C(=O)N[C@@H](CCC(N)=O)C(=O)N[C@@H](CCC(=O)O)C(=O)N[C@@H](CCCCN)C(=O)N[C@@H](CCC(N)=O)C(=O)N[C@@H](CCCCN)C(=O)NC(C)(C)C(=O)N[C@@H](CCC(N)=O)C(=O)N[C@@H](CCCNC(=N)N)C(=O)N[C@@H](CCC(=O)O)C(=O)N[C@@H](CCC(N)=O)C(=O)N[C@@H](C)C(=O)N[C@@H](CCC(=O)O)C(=O)N[C@H](C(=O)N[C@@H](CC(N)=O)C(=O)NC1(C(=O)N[C@@H](CCC(N)=O)C(=O)N[C@H](C(=O)N[C@@H](CC(C)C)C(=O)N[C@@H](C)C(=O)N[C@@H](CCC(N)=O)C(=O)N[C@H](C(N)=O)C(C)C)[C@@H](C)CC)CCNCC1)[C@@H](C)O)[C@@H](C)CC)[C@@H](C)CC)C(C)C)C(C)C` [compound 188] (Ac-IVLSLD[dV]PIKLK([γGlu-C18 diacid])KILLEQEKQK[Aib]QREQAETN[Api]QILAQV-NH2), in series [1], the amount remaining at 2 h turned out to be 77%. Also, at CFR1R receptor, the “Emax (% I)” value was 32 % I and the pEC50 is less than 6.60. In addition, in series [2], the AUC(0-t) stood at 2270 ng·h/mL, the highest level (Cmax) was 138 ng/mL, the time to peak (Tmax) came to 6 h and the half-life was 10.6 h. Moreover, on human CRF2a receptor, the pEC50 is 9.55. The “Buffer stability pH 4.5 % purity loss” value in series [3] (100 mM acetate buffer pH 4.5) is on record as 0.0/0.0 ^ %. Also, in series [3], the “Buffer stability pH 7.4 % purity loss” value is on record as 0.0/0.0 ^ %.

For the molecule `CC[C@H](C)[C@H](NC(C)=O)C(=O)N[C@H](C(=O)N[C@@H](CC(C)C)C(=O)N[C@@H](CO)C(=O)N[C@@H](CC(C)C)C(=O)N[C@@H](CC(=O)O)C(=O)N[C@@H](C(=O)N1CCC[C@H]1C(=O)N[C@H](C(=O)N[C@@H](CCCCN)C(=O)N[C@@H](CC(C)C)C(=O)N[C@@H](CCCCNC(=O)CC[C@H](NC(=O)CCCCCCCCCCCCCCCCC(=O)O)C(=O)O)C(=O)N[C@@H](CCCCN)C(=O)N[C@H](C(=O)N[C@@H](CC(C)C)C(=O)N[C@@H](CC(C)C)C(=O)N[C@@H](CCC(=O)O)C(=O)N[C@@H](CCC(N)=O)C(=O)N[C@@H](CCC(=O)O)C(=O)N[C@@H](CCCCN)C(=O)N[C@@H](CCC(N)=O)C(=O)N[C@@H](CCCCN)C(=O)NC(C)(C)C(=O)N[C@@H](CCC(N)=O)C(=O)N[C@@H](CCCNC(=N)N)C(=O)N[C@@H](CCC(=O)O)C(=O)N[C@@H](CCC(N)=O)C(=O)N[C@@H](C)C(=O)N[C@@H](CCC(=O)O)C(=O)N[C@H](C(=O)N[C@@H](CC(N)=O)C(=O)NC(C)(C)C(=O)N[C@@H](CCC(N)=O)C(=O)N[C@H](C(=O)N[C@@H](CC(C)C)C(=O)N[C@@H](C)C(=O)N[C@@H](CCC(N)=O)C(=O)N[C@H](C(N)=O)C(C)C)[C@@H](C)CC)[C@@H](C)O)[C@@H](C)CC)[C@@H](C)CC)C(C)C)C(C)C` [compound 190] (Ac-IVLSLD[dV]PIKLK([γGlu-C18 diacid])KILLEQEKQK[Aib]QREQAETN[Aib]QILAQV-NH2), the amount remaining at 2 h in series [1] stood at 95%. For the same molecule, at CFR1R receptor, the “Emax (% I)” value is recorded as 9 % I and the pEC50 is less than 6.60. In series [2], the AUC(0-t) was 1930 ng·h/mL, the peak level (Cmax) was 112 ng/mL, the Tmax was 5 h and the half-life was 5.7 h. The pEC50 on human CRF2a receptor is 9.52. Further, the “Buffer stability pH 7.4 % purity loss” value in series [3] was 0.0/Not Tested %.

Take `CC[C@H](C)[C@H](NC(C)=O)C(=O)N[C@H](C(=O)N[C@@H](CC(C)C)C(=O)N[C@@H](CO)C(=O)N[C@@H](CC(C)C)C(=O)N[C@@H](CC(=O)O)C(=O)N[C@@H](C(=O)N1CCC[C@H]1C(=O)N[C@H](C(=O)N[C@@H](CCCCN)C(=O)N[C@@H](CC(C)C)C(=O)N[C@@H](CCCCNC(=O)CC[C@H](NC(=O)CCCCCCCCCCCCCCCCC(=O)O)C(=O)O)C(=O)N[C@@H](CCCCN)C(=O)N[C@H](C(=O)N[C@@H](CC(C)C)C(=O)N[C@@H](CC(C)C)C(=O)N[C@@H](CCC(=O)O)C(=O)N[C@@H](CCC(N)=O)C(=O)N[C@@H](CCC(=O)O)C(=O)N[C@@H](CCCCN)C(=O)N[C@@H](CCC(N)=O)C(=O)N[C@@H](CCCCN)C(=O)N[C@@H](CCCCN)C(=O)N[C@@H](CCC(N)=O)C(=O)N[C@@H](CCCNC(=N)N)C(=O)N[C@@H](CCC(=O)O)C(=O)N[C@@H](CCC(N)=O)C(=O)N[C@@H](C)C(=O)N[C@@H](CCC(=O)O)C(=O)N[C@H](C(=O)N[C@@H](CC(N)=O)C(=O)NC1(CC(=O)N[C@@H](CCC(N)=O)C(=O)N[C@H](C(=O)N[C@@H](CC(C)C)C(=O)N[C@@H](C)C(=O)N[C@@H](CCC(N)=O)C(=O)N[C@H](C(N)=O)C(C)C)[C@@H](C)CC)CCOCC1)[C@@H](C)O)[C@@H](C)CC)[C@@H](C)CC)C(C)C)C(C)C` [compound 199] (Ac-IVLSLD[dV]PIKLK([γGlu-C18 diacid])KILLEQEKQKKQREQAETN[X1]QILAQV-NH2): in series [1], the share remaining at 2 h stood at 83%. In addition, on CFR1R receptor, the “Emax (% I)” value was determined as 11 % I and the pEC50 is less than 6.60. In series [2], the AUC(0-t) came out at 1620 ng·h/mL, the Cmax came out at 111 ng/mL, the Tmax came to 6 h and the half-life was 10.2 h. Further, the pEC50 at human CRF2a receptor is 9.80. Besides, the “Buffer stability pH 7.4 % purity loss” value in series [3] is recorded as 0/Not Tested %.
